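Cultured in 96-well plates, cells were exposed to test compound for 48 hours across five concentrations. GI50 is the concentration that inhibits growth by half.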 The source made the active and inactive calls. No stated cut-off is given here; in the data, active = GI50 up to about 1.1 µM and inactive = higher.
Assays:
Assay in all cases: DTP human tumour cell line panel, 48 h
DMS-273 = test system: DMS-273
DLD-1 = test system: DLD-1
XF498 = test system: XF498
DMS-114 = test system: DMS-114
SNB-78 = test system: SNB-78
M19-MEL = test system: M19-MEL
HOP-18 = test system: HOP-18
LXFL 529 = test system: LXFL 529
RXF 631 = test system: RXF 631

| Compound | GI50 (DMS-273) | GI50 (DLD-1) | GI50 (XF498) | GI50 (DMS-114) | GI50 (SNB-78) | GI50 (M19-MEL) | GI50 (HOP-18) | GI50 (LXFL 529) | GI50 (RXF 631) |
| --- | --- | --- | --- | --- | --- | --- | --- | --- | --- |
| CN(C)C=[N+]=[N-] | > 100 µM (inactive) | > 100 µM (inactive) | > 100 µM (inactive) | > 100 µM (inactive) | > 100 µM (inactive) | > 100 µM (inactive) | > 100 µM (inactive) | > 100 µM (inactive) | – |
| CCOc1ccc(/C(C=O)=C(\Cl)c2ccc(OC)c(OC)c2)cc1 | > 100 µM (inactive) | > 100 µM (inactive) | 45.2 µM (inactive) | > 100 µM (inactive) | > 100 µM (inactive) | > 100 µM (inactive) | > 100 µM (inactive) | > 100 µM (inactive) | > 100 µM (inactive) |
| O=C(c1ccccc1)[C@H]1Nc2ccc(Cl)cc2[C@H]2CCC[C@@H]12 | 36.1 µM (inactive) | 21.8 µM (inactive) | 17.1 µM (inactive) | 23.6 µM (inactive) | 51.3 µM (inactive) | 27.6 µM (inactive) | 12.3 µM (inactive) | 17.9 µM (inactive) | 36.1 µM (inactive) |
| C=C(C)c1nc(Oc2ccccc2)nc(Oc2ccccc2)n1 | 6.43 µM (inactive) | 2.72 µM (inactive) | 1.73 µM (inactive) | 3.01 µM (inactive) | 5.4 µM (inactive) | 2.88 µM (inactive) | 16.6 µM (inactive) | 2 µM (inactive) | 3.69 µM (inactive) |
| CCCCCC(C[N+]1(C)CCOCC1)C(=O)/C=C/c1ccccc1 (stereo unspecified) | 2.91 µM (inactive) | 6.25 µM (inactive) | 14.4 µM (inactive) | 9.62 µM (inactive) | 14.1 µM (inactive) | 14.6 µM (inactive) | 14.8 µM (inactive) | 3.18 µM (inactive) | – |
| O=C(/C=N/c1ccccc1S)c1ccco1 | 11.2 µM (inactive) | 6.56 µM (inactive) | – | 15.3 µM (inactive) | 16.9 µM (inactive) | 12.2 µM (inactive) | 17.7 µM (inactive) | – | – |
| CCOC(=O)C(C)c1c(C(=O)c2ccc(C)nc2)c2ccccc2n1C (stereo unspecified) | > 100 µM (inactive) | > 100 µM (inactive) | 83 µM (inactive) | > 100 µM (inactive) | > 100 µM (inactive) | > 100 µM (inactive) | – | > 100 µM (inactive) | > 100 µM (inactive) |
| COc1cc2c3c(c1OC)/C(=N/OS(=O)(=O)c1ccc(C)cc1)CC3N(S(=O)(=O)c1ccc(C)cc1)CC2 (stereo unspecified) | > 100 µM (inactive) | > 100 µM (inactive) | > 100 µM (inactive) | > 100 µM (inactive) | 41.7 µM (inactive) | > 100 µM (inactive) | > 100 µM (inactive) | > 100 µM (inactive) | 66.1 µM (inactive) |
| Cn1cc/c(=N\N=c2/ccn(C)c3ccccc23)c2ccccc21 | 16.4 µM (inactive) | 14.7 µM (inactive) | 14.1 µM (inactive) | 14.4 µM (inactive) | 16.4 µM (inactive) | 18.7 µM (inactive) | – | 14.1 µM (inactive) | – |
| CCNC(=O)C(O)C1(O)CCC2[C@@H]3CCC4=CC(=O)C=C[C@]4(C)C3[C@@H](O)C[C@@]21C (stereo partly specified) | > 100 µM (inactive) | > 100 µM (inactive) | > 100 µM (inactive) | 60.7 µM (inactive) | > 100 µM (inactive) | > 100 µM (inactive) | 33.3 µM (inactive) | > 100 µM (inactive) | > 100 µM (inactive) |
| Clc1ccc(C[P+](c2ccccc2)(c2ccccc2)c2ccccc2)c(Cl)c1 | 1.93 µM (inactive) | – | 1.61 µM (inactive) | 1.52 µM (inactive) | 3.42 µM (inactive) | 1.88 µM (inactive) | – | 1.67 µM (inactive) | – |
| Cc1cc(N(CCC#N)S(=O)(=O)c2ccccc2)ccc1/C=N/c1ccc(C(=O)O)cc1 | 6.61 µM (inactive) | 1.99 µM (inactive) | 8.71 µM (inactive) | 3.41 µM (inactive) | 12.3 µM (inactive) | 2.75 µM (inactive) | 3.24 µM (inactive) | 1.76 µM (inactive) | – |
| Cc1ccc(S(=O)(=O)OCOS(=O)(=O)c2ccc(C)cc2)cc1 | > 100 µM (inactive) | > 100 µM (inactive) | – | > 100 µM (inactive) | > 10 µM (inactive) | > 100 µM (inactive) | > 100 µM (inactive) | > 100 µM (inactive) | – |
| OC[C@H]1O[C@@H](n2cnc3cncnc32)[C@H](O)[C@@H]1O [NEBULARINE] | 0.59 µM (active) | 0.536 µM (active) | < 0.01 µM (active) | 1.21 µM (inactive) | 4.02 µM (inactive) | 3.27 µM (inactive) | 2.62 µM (inactive) | – | – |
| O=C(Cl)c1cc([N+](=O)[O-])cc([N+](=O)[O-])c1 | > 100 µM (inactive) | > 100 µM (inactive) | > 100 µM (inactive) | > 100 µM (inactive) | > 100 µM (inactive) | > 100 µM (inactive) | – | > 100 µM (inactive) | – |
| COc1cccc(NC(=O)CC(=O)N2N=C(N3c4ccccc4Sc4ccccc43)CC2c2ccccc2)c1 (stereo unspecified) | – | > 100 µM (inactive) | > 100 µM (inactive) | > 100 µM (inactive) | > 100 µM (inactive) | > 100 µM (inactive) | 9.48 µM (inactive) | > 100 µM (inactive) | – |
| O=P1(NCCCl)OCCC(OO)N1CCCl (stereo unspecified) | 47.3 µM (inactive) | 21.2 µM (inactive) | – | 31.6 µM (inactive) | 34.2 µM (inactive) | 34.8 µM (inactive) | 39.9 µM (inactive) | – | – |

| Compound | GI50 (DMS-273) | GI50 (DLD-1) | GI50 (XF498) | GI50 (DMS-114) | GI50 (SNB-78) | GI50 (M19-MEL) | GI50 (HOP-18) | GI50 (LXFL 529) | GI50 (RXF 631) |
| --- | --- | --- | --- | --- | --- | --- | --- | --- | --- |
| O=C(O)C1=CCCc2ccc3ccccc3c21 | > 100 µM (inactive) | – | > 100 µM (inactive) | > 100 µM (inactive) | > 100 µM (inactive) | > 100 µM (inactive) | 21.6 µM (inactive) | > 100 µM (inactive) | > 100 µM (inactive) |
| CN(C)CCSc1cccc(-c2cc(-c3cccc(SCCN(C)C)c3)nc(SCCN(C)C)n2)c1 | – | 12.9 µM (inactive) | – | – | 2.42 µM (inactive) | – | < 0.01 µM (active) | 2.02 µM (inactive) | – |
| CC(=O)OC1CCC2(C)C(CCC3C2CCC2(C)C(c4ccc(=O)oc4)C(OC(C)=O)CC32O)C1 (stereo unspecified) | 0.0125 µM (active) | 0.0155 µM (active) | 0.0244 µM (active) | – | 0.0164 µM (active) | – | 0.0125 µM (active) | – | – |
| COc1ccccc1NC(=O)CC(=O)N1N=C(C)C(/N=N/c2ccc(S(N)(=O)=O)cc2)C1=O (stereo unspecified) | > 100 µM (inactive) | > 100 µM (inactive) | > 100 µM (inactive) | > 100 µM (inactive) | > 100 µM (inactive) | > 100 µM (inactive) | > 100 µM (inactive) | > 100 µM (inactive) | – |
| O=C1/C(=C/c2ccc(Cl)cc2)CCC1CN1CCOCC1 (stereo unspecified) | 3.06 µM (inactive) | 2.52 µM (inactive) | 2.55 µM (inactive) | 22.8 µM (inactive) | 12.5 µM (inactive) | – | 13.9 µM (inactive) | 2.58 µM (inactive) | 8.36 µM (inactive) |
| NC(=O)/C(=N\NC(=O)c1cc2ccccc2cc1O)C1C(=O)N(c2ccccc2)N=C1N (stereo unspecified) | – | 34 µM (inactive) | 37.6 µM (inactive) | 20.4 µM (inactive) | 69.8 µM (inactive) | 30.6 µM (inactive) | 17.5 µM (inactive) | 59.3 µM (inactive) | 37.3 µM (inactive) |
| CCOC(=O)N1CCc2cc(OC)c(OC)cc2/C1=C/c1ccc(OC)c(OC)c1 | 49.2 µM (inactive) | 48.6 µM (inactive) | 30 µM (inactive) | 40 µM (inactive) | 38 µM (inactive) | 45.9 µM (inactive) | > 100 µM (inactive) | 34.6 µM (inactive) | – |
| CC(=O)[O-].[O-]c1c(Cl)cc(Cl)cc1/C=N/Nc1ccccn1.[Zn+2] | – | 0.415 µM (active) | – | 0.239 µM (active) | – | 0.745 µM (active) | – | 0.436 µM (active) | – |
| O=C(O)C1CCCCN1c1ccccc1[N+](=O)[O-] (stereo unspecified) | > 100 µM (inactive) | > 100 µM (inactive) | > 100 µM (inactive) | > 100 µM (inactive) | > 100 µM (inactive) | > 100 µM (inactive) | > 100 µM (inactive) | > 100 µM (inactive) | – |
| CCC(C(=O)O)c1ccc(OC)cc1 (stereo unspecified) | > 100 µM (inactive) | > 100 µM (inactive) | > 100 µM (inactive) | > 100 µM (inactive) | > 100 µM (inactive) | > 100 µM (inactive) | – | > 100 µM (inactive) | > 100 µM (inactive) |
| O=C1C=CC(=C(c2ccc(O)cc2)c2ccc(O)cc2)C=C1 [AURIN] | 6.78 µM (inactive) | 10.3 µM (inactive) | 11.7 µM (inactive) | 2.4 µM (inactive) | 5.11 µM (inactive) | – | 16.4 µM (inactive) | 3.18 µM (inactive) | 15 µM (inactive) |
| COc1ccc(OC(=O)CC2Cc3cc(OC)c(OC)c(OC)c3-c3ccc(SC)c(=O)cc32)cc1 (stereo unspecified) | 0.102 µM (active) | 0.344 µM (active) | 0.258 µM (active) | 0.348 µM (active) | – | 5.74 µM (inactive) | – | 0.217 µM (active) | 0.281 µM (active) |
| O=C(Nc1cc([N+](=O)[O-])cc([N+](=O)[O-])c1)OC1C2CCC1C1OC1C2 (stereo unspecified) | – | > 50 µM (inactive) | – | 30.5 µM (inactive) | > 50 µM (inactive) | > 50 µM (inactive) | – | – | – |
| CCOC(=O)Cc1ccc2c(c1O)C(=O)c1c(ccc(CC(=O)OCC)c1O)C2=O | > 100 µM (inactive) | > 100 µM (inactive) | > 100 µM (inactive) | > 100 µM (inactive) | > 100 µM (inactive) | > 100 µM (inactive) | 28.4 µM (inactive) | > 100 µM (inactive) | – |
| CCCCCCCCCCCCCCCCCC(=O)OCC(CN(C)CCN(C)C)OC(=O)CCCCCCCCCCCCCCCCC (stereo unspecified) | > 100 µM (inactive) | 89.7 µM (inactive) | – | 46.1 µM (inactive) | > 100 µM (inactive) | – | 20.6 µM (inactive) | 72.4 µM (inactive) | 55.5 µM (inactive) |
| C=C(CN(C)C)C(=O)c1ccc(OC)cc1 | 3.8 µM (inactive) | 0.427 µM (active) | 1.93 µM (inactive) | 3.7 µM (inactive) | 2.36 µM (inactive) | 2.07 µM (inactive) | 3.78 µM (inactive) | 1.69 µM (inactive) | – |
